Data on 5 molecules can be found in publication PMC8149590, “Biochemical Characterization of a Novel Bacterial Laccase and Improvement of Its Efficiency by Directed Evolution on Dye Degradation” (Frontiers in Microbiology, 2021).

The test concerns T1, rlac1338.
T1 construct: gene lac1338; 1,338 bp gene (about 445 residues), codon-optimised, in pET-32a(+), E. coli BL21(DE3); His-tag fusion (18 kD vector tag), ~68 kD by SDS-PAGE
Briefly: initial rates by OD405, Lineweaver-Burk. Format: biochemical, uncultured bacterium. The note with it: ± sign lost in table text. The source says:
initial rates by OD405, Lineweaver-Burk on rlac1338

Setting [1] is: mutant lac2-9, optimal pH 6.5 and 60°C, printed base change T698A falls in codon 233, not 232.

A word on the Km: it is the substrate concentration at which the rate is half of its maximum.

On to `Oc1cccc2ccccc12` [1-naphthol], for which the Km runs as follows: under setting [1], 6040 µM; (optimal pH 6.0 and 55°C) 5600 µM.
As for `CCn1c(=NN=c2sc3cc(S(=O)(=O)O)ccc3n2CC)sc2cc(S(=O)(=O)O)ccc21` [ABTS, 2,2-azide-bis (3-ethylbenzothiazole-6-sulfonic acid)], the Km is 76 ± 1.8 µM under setting [1]; 210 ± 3.3 µM (optimal pH 6.0 and 55°C).
`COc1ccccc1O` [Guaiacol]: the Km is, setting by setting: under setting [1], 4300 µM; (optimal pH 6.0 and 55°C) 4900 µM.
On the same counts, the results for `COc1cccc(OC)c1O` [2,6-DMP] are 560 ± 3.7 µM and 654 ± 2.1 µM.
On the same counts, the results for `Oc1ccccc1O` [Catecho] are 570 ± 2.9 µM and 507 ± 2.5 µM.
